Assay results from patent US12213970B2, “Pyridinyl sulfonamide derivatives, pharmaceutical compositions and uses thereof” (Boehringer Ingelheim International GmbH, priority 2018, dated 2025).
Where a name gives a salt, the structure may show the parent alone. Read-outs that look alike come from different tables or passages of the source.

Key:
AOC2 = molecular target: T1, AOC2 (Homo sapiens, UniProt O75106); assay: AOC2 biochemical assay (Amplex Red)
T1 construct: host or cells: HEK293 cells (transient transfection), cell homogenate
T1 sequence (O75106 1-756): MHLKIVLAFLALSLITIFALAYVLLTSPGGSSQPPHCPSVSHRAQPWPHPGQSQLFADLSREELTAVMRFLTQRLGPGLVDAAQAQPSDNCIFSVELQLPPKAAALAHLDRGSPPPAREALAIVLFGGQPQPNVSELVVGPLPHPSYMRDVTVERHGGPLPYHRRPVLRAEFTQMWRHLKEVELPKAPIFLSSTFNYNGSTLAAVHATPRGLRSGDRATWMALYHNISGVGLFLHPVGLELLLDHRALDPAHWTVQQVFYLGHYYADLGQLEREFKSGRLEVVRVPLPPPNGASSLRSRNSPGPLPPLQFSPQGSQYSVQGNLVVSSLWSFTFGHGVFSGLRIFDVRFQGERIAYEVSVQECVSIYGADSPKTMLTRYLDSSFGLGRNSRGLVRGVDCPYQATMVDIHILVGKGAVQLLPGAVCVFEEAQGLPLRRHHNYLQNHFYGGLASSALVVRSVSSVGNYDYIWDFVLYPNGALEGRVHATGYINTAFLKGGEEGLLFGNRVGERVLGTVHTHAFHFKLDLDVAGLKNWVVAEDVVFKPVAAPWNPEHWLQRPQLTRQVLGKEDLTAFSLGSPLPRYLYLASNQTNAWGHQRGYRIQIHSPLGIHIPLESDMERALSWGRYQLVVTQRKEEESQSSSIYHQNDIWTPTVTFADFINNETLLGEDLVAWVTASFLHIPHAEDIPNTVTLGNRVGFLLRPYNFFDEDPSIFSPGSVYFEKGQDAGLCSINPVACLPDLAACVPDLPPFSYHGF
Description: The Amplex® Red Assay (commercially available from Thermo Fisher Scientific) provides a sensitive method for the detection of H2O2 generated during enzymatic reactions like the amine oxidation catalyzed by AOC2. […] An aliquot of 5 μL of the compound dilution is added to a 96 well plate (flat bottom F, black, GREINER bio-one, #655900) in a DMSO concentration of 2%. […] Cells are cultured for 3 days in EMEM culture medium containing 10% FCS (#04-00-1A, Biological Industries). After washing twice with ice cold PBS, cells are lysed by mechanic homogenation and cleared supernatants are shock frozen in liquid nitrogen and stored at -80° C. For the determination of AOC2 enzymatic activity cell lysates are thawed on ice and 1:1 diluted with reaction buffer. An Aliquot of 45 μL is added to the compound dilution and incubated for 30 min at 37° C. The enzymatic reaction is started with the addition of 50 μL of Amplex® Red reaction mix (final assay concentration: 100 mM sodiumphosphate, 120 μM Amplex® Red reagent (#A22177 Molecular Probes), 1.5 U/mL Horseradish Peroxidase (#P8375 Sigma-Aldrich), 2 mM phenylethylamine (#[…] Sigma-Aldrich), 0.05% Pluronic F-127 (#P3000MP Sigma-Aldrich), pH 7.4, 37° C.). The turnover per time of the substrate is determined directly with a fluorescence reader (Ex 540 nm/Em 590 nm) like Envision 2104 Multilabel Reader (PERKIN ELMER) for 60 min. (cf. Anal Biochem (1997) 253:169-174; Anal Biochem (1997) 253:162-168)

MAO-A = molecular target: T2, MAO-A (Homo sapiens, UniProt P21397); assay: MAO-A biochemical assay (MAO-Glo)
T2 construct: purchased Sigma-Aldrich M7316
T2 sequence (P21397 1-527): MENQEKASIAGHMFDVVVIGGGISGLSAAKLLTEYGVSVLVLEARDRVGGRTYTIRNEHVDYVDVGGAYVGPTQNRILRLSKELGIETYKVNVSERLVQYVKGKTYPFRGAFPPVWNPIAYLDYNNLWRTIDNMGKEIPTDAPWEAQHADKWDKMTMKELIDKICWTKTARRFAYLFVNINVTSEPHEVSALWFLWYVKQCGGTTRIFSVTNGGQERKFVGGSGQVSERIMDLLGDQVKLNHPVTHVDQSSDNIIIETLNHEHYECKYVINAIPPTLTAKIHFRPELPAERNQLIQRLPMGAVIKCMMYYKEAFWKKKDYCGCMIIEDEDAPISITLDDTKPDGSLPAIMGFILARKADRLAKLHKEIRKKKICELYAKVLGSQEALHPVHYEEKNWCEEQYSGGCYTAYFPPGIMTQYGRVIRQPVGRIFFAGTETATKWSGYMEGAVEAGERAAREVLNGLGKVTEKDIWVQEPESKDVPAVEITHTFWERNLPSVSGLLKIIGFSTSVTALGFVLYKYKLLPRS
Description: The MAO-Glo™ Assay (commercially available from PROMEGA, #V1402) provides a sensitive method for the measurement of monoamine oxidase (MAO) activity (Valley, M. P. et al., 2006, Anal. Biochem. 359: 238-246) from a variety of tissues, biofluids or recombinant expressed or purified enzymes. As substrate a derivate of the beetle luciferin ((4S)-4,5-dihydro-2-(6-hydroxybenzothiazolyl)-4-thiazole-carboxylic acid) is used, which is oxidized at a primary amine moiety. After a spontaneous elimination and a catalyzed esterase reaction, the turnover of luciferin by the luciferase is recorded as a signal of MAO-A activity.
An aliquot of 3 μL of the compound dilution is added to a 384 well plate (Optiplate, PS, flat bottom F, black, PERKIN ELMER, #6007270) in a DMSO concentration of 1.025%.
A MAO-A enzyme aliquot (M7316, Sigma-Aldrich) is thawed on ice, diluted in reaction buffer to 1.25 mU/μL and added in a volume of 5 μL to the wells. After incubation for 20 minutes at 37° C., 2 μL of MAO substrate (dissolved in DMSO at 16 mM, diluted to 20 μM in assay buffer to obtain a final assay concentration of 4 μM) is added, mixed, and the mixture further incubated for 60 minutes at 37° C.
The turnover of the substrate is determined by the addition of 10 μL of the Detection Reagent mix which was generated by the addition of reconstitution buffer with esterase (PROMEGA, #V1402) to the luciferin detection reagent (PROMEGA, #V1402). After an incubation period of 20 minutes at 37° C., the luminescent signal is measured with a […], e.g. Envision 2104 Multilabel Reader (PERKIN ELMER).

[1] = comparison table, read-out: IC50 MAO-A

| IC50 (AOC2; read-out: AOC2 IC50) | IC50 (MAO-A; IC50, read-out: MAO-A) | Structure (SMILES) | also measured |
| --- | --- | --- | --- |
| 0.079 µM | > 50 µM | CCNC(=O)C1(C)CCN(S(=O)(=O)c2ccc(OC/C(=C\F)CN)nc2)CC1 [Example 23] | – |
| 0.072 µM | > 50 µM | CC(=O)N[C@@H]1CCCN(S(=O)(=O)c2ccc(OC/C(=C\F)CN)nc2)C1 [Example 24] | – |
| 0.068 µM | > 50 µM | CN(C)C(=O)C1CN(S(=O)(=O)c2ccc(OC/C(=C\F)CN)nc2)C1 [Example 25] | – |
| 0.063 µM | > 50 µM | NC/C(=C/F)COc1ccc(S(=O)(=O)N2CC(C3CCN(C(=O)C4CC4)CC3)C2)cn1 [Example 26] | – |
| 0.062 µM | > 50 µM | CNC(=O)[C@H]1[C@@H]2CN(S(=O)(=O)c3ccc(OC/C(=C\F)CN)nc3)C[C@@H]21 [Example 27] | – |
| 0.059 µM | > 50 µM | CC(=O)NCC1CCN(S(=O)(=O)c2ccc(OC/C(=C\F)CN)nc2)CC1 [Example 28] | – |
| 0.058 µM | > 50 µM | CNC(=O)[C@@]12C[C@@H]1CN(S(=O)(=O)c1ccc(OC/C(=C\F)CN)nc1)C2 [Example 29] | – |
| – | 20.1 µM | CC(F)(F)CNC(=O)CC1CCN(S(=O)(=O)c2ccc(OC/C(=C\F)CN)nc2)CC1 [Example 51] | – |
| – | 25.9 µM | NC/C(=C/F)COc1ccc(S(=O)(=O)N2CCC(CC(=O)NCCO)CC2)cn1 [Example 52] | – |
| – | > 50 µM | CC1(C(=O)NCCF)CCN(S(=O)(=O)c2ccc(OC/C(=C\F)CN)nc2)CC1 [Example 53] | – |
| – | 26.9 µM | COCCNC(=O)CC1CCN(S(=O)(=O)c2ccc(OC/C(=C\F)CN)nc2)CC1 [Example 54] | – |
| – | > 50 µM | NC/C(=C/F)COc1ccc(S(=O)(=O)N2CCC(CC(=O)N3CC(O)C3)CC2)cn1 [Example 55] | – |
| – | > 50 µM | CC1(C(=O)NC2CC2)CCN(S(=O)(=O)c2ccc(OC/C(=C\F)CN)nc2)CC1 [Example 56] | – |

Continued, compound first:

| Structure (SMILES) | IC50 (AOC2; read-out: AOC2 IC50) | IC50 (MAO-A; IC50, read-out: MAO-A) | also measured |
| --- | --- | --- | --- |
| CN(C)S(=O)(=O)c1ccc(OC/C(=C\F)CN)cc1 [Compound 10 of WO 2013/163675, reference compound] | – | – | ratio IC50 AOC2/IC50 AOC3 (fold less active against AOC2 as compared to AOC3) (AOC2; AOC2 versus AOC3): ca. 270 fold; IC50 (AOC2; read-out: IC50 AOC2): 0.538 µM; IC50 (MAO-A; read-out: IC50 MAO-A): 7.41 µM |
| CN1CCN(C2CCN(S(=O)(=O)c3ccc(OC/C(=C\F)CN)nc3)CC2)C1=O [Example 1, 1-{1-[6-((Z)-2-Aminomethyl-3-fluoro-allyloxy)-pyridine-3-sulfonyl]-piperidine-4-yl}-3-methyl-imidazolidin-2-one trifluoroacetate] | 0.12 µM | > 50 µM | – |
| CC(C)(O)CNC(=O)[C@H]1CCN(S(=O)(=O)c2ccc(OC/C(=C\F)CN)nc2)C1 [Example 2] | 0.272 µM | > 50 µM | – |
| NC/C(=C/F)COc1ccc(S(=O)(=O)N2CCC(C(=O)N3CCOCC3)CC2)cn1 [Example 3] | – | > 50 µM | IC50 (AOC2; value in μM, read-out: AOC2 IC50): 23.4 µM |
| CN(C)C(=O)[C@H]1CCN(S(=O)(=O)c2ccc(OC/C(=C\F)CN)nc2)C1 [Example 4] | 0.394 µM | > 50 µM | – |
| CNC(=O)[C@@H]1[C@@H]2CN(S(=O)(=O)c3ccc(OC/C(=C\F)CN)nc3)C[C@@H]21 [Example 5] | 0.345 µM | > 50 µM | – |
| CC(=O)N[C@H]1CCCN(S(=O)(=O)c2ccc(OC/C(=C\F)CN)nc2)C1 [Example 6] | 0.285 µM | > 50 µM | – |
| NC/C(=C/F)COc1ccc(S(=O)(=O)N2CCC(C(N)=O)CC2)cn1 [Example 7] | 0.272 µM | > 50 µM | – |
| CNC(=O)[C@@H]1CCCN1S(=O)(=O)c1ccc(OC/C(=C\F)CN)nc1 [Example 8] | 0.257 µM | > 50 µM | – |
| CC(=O)N1CC(C2CCN(S(=O)(=O)c3ccc(OC/C(=C\F)CN)nc3)CC2)C1 [Example 9] | 0.222 µM | > 50 µM | – |
| NC/C(=C/F)COc1ccc(S(=O)(=O)N2CCC(C(=O)N3CCC3)CC2)cn1 [Example 10] | 0.214 µM | > 50 µM | – |
| CNC(=O)[C@H]1CCN(S(=O)(=O)c2ccc(OC/C(=C\F)CN)nc2)C1 [Example 11] | 0.21 µM | > 50 µM | – |
| CC(=O)NC1CCN(S(=O)(=O)c2ccc(OC/C(=C\F)CN)nc2)C1 (stereo not drawn) [Example 12] | 0.209 µM | > 50 µM | – |
| NC/C(=C/F)COc1ccc(S(=O)(=O)N2CCC[C@H]2C(N)=O)cn1 [Example 13] | 0.205 µM | > 50 µM | – |
| CNC(=O)[C@@H]1CCN(S(=O)(=O)c2ccc(OC/C(=C\F)CN)nc2)C1 [Example 14] | 0.203 µM | > 50 µM | – |
| CCNC(=O)C1CCN(S(=O)(=O)c2ccc(OC/C(=C\F)CN)nc2)CC1 [Example 15] | 0.202 µM | > 50 µM | – |
| CC1(O)CN(S(=O)(=O)c2ccc(OC/C(=C\F)CN)nc2)C1 [Example 16] | 0.189 µM | 12.8 µM | – |
| CN(C)C(=O)C1CCN(S(=O)(=O)c2ccc(OC/C(=C\F)CN)nc2)CC1 [Example 17] | 0.189 µM | > 50 µM | – |
| NC/C(=C/F)COc1ccc(S(=O)(=O)N2CCC[C@@H]2C(N)=O)cn1 [Example 18] | 0.176 µM | > 50 µM | – |
| CN(C)C(=O)CC1CCN(S(=O)(=O)c2ccc(OC/C(=C\F)CN)nc2)CC1 [Example 19] | 0.13 µM | > 50 µM | – |
| NC/C(=C/F)COc1ccc(S(=O)(=O)N2CC(C(N)=O)C2)cn1 [Example 20] | 0.119 µM | > 50 µM | – |
| NC/C(=C/F)COc1ccc(S(=O)(=O)N2CC[C@H](C(=O)N3CCOCC3)C2)cn1 [Example 21] | 0.101 µM | > 50 µM | – |
| NC/C(=C/F)COc1ccc(S(=O)(=O)N2C[C@H]3C[C@@]3(C(=O)N3CCOCC3)C2)cn1 [Example 22] | 0.093 µM | > 50 µM | – |
| NC/C(=C/F)COc1ccc(S(=O)(=O)N2CC[C@H](O)C2)cc1 [Reference compound B, reference compound] | – | – | IC50 (MAO-A; [1]): 7.25 µM |
| NC/C(=C/F)COc1cnc(N2CCC(O)CC2)nc1 [reference compound] | – | – | IC50 (MAO-A; [1]): 54.9 µM |
